Experimental data from patent US20250276964A1 (Novartis AG, priority 2021, published 2025).

Target: T1, WIZ (Homo sapiens, UniProt O95785+Q96SW2)
T1 construct: expressed in transfected cells
Assay: Quantification of WIZ protein levels in HiBit tag fusion protein assay (WIZ HiBit assay in 293T cells)
Type: cell-based
Settings: for Dmax at 25 µM / remaining activity at 25 µM: HEK-293T; for Dmax at 25 µM: read-out: % degradation of WIZ (100-Amax); for remaining activity at 25 µM: read-out: WIZ Amax; for DC50: WIZ HiBit assay in 293T cells, 10-point, 5-fold dilution, highest concentration 25 μM, about 18 hours, read-out: WIZ AC50
Procedure, shortened: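 293T cells stably carrying single-copy HiBit-WIZ (HSVTK promoter) treated ~18 h at 37 °C with 10-point, 5-fold dilutions, top 25 μM. Lytic HiBit luminescence read; Amax is DMSO-normalised, curve-fitted % WIZ-HiBit remaining at 25 uM.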

[1] = DMSO-normalized, curve-fitted percentage of WIZ-HiBit remaining at 25 uM

T1 sequence (O95785 whole entry): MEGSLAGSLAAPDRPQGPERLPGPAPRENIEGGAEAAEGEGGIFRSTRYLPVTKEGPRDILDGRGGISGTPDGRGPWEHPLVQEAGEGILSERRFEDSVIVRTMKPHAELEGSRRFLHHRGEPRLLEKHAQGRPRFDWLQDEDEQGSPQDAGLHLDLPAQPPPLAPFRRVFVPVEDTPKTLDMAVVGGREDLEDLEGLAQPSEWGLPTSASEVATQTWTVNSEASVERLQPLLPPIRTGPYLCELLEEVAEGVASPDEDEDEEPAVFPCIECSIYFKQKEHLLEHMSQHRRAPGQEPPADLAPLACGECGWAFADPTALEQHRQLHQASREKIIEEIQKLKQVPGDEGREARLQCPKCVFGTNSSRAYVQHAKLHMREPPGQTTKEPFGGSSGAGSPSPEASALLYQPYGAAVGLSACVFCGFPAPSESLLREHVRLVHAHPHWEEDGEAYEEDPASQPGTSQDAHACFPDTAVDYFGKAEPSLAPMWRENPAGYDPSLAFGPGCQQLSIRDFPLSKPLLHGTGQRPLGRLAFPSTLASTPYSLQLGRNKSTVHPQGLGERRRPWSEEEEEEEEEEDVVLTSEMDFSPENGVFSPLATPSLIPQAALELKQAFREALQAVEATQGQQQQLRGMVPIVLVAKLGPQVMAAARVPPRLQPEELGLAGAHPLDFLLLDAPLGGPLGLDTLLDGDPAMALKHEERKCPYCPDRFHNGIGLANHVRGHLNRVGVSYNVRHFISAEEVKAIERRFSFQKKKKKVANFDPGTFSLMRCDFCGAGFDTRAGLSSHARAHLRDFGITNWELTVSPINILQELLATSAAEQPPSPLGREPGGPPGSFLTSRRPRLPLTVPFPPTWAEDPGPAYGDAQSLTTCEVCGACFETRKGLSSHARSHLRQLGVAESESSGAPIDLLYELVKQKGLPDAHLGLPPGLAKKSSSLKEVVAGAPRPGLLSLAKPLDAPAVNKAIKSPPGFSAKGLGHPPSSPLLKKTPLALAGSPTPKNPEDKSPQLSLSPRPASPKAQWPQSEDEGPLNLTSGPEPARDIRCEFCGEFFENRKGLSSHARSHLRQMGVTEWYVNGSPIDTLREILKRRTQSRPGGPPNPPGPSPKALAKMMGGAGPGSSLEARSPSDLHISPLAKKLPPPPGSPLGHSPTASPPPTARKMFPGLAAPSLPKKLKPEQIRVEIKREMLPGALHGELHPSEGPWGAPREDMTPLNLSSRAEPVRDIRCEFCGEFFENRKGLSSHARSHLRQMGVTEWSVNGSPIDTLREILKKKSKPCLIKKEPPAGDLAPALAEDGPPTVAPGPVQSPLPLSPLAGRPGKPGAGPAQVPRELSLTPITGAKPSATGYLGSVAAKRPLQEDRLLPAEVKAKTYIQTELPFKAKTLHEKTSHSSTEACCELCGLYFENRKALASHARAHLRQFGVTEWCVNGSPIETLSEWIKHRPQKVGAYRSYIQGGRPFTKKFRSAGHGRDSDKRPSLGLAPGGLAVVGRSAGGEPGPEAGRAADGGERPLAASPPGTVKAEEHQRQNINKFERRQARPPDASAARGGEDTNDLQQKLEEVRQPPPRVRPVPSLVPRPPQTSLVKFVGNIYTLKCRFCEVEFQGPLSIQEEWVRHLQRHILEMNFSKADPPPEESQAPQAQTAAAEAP
T1 sequence (Q96SW2 whole entry): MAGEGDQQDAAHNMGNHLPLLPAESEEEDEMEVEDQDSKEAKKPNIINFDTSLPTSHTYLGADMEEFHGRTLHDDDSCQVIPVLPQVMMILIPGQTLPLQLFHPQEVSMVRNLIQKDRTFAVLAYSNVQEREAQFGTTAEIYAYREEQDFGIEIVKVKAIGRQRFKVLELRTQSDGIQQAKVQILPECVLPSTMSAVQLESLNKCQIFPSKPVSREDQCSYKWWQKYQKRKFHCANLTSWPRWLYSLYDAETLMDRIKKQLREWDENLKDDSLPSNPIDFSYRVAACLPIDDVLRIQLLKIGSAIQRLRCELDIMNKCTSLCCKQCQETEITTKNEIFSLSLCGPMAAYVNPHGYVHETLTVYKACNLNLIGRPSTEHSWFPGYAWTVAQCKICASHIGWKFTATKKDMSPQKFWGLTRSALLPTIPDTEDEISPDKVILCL
T1 sequence (Q16531 whole entry partner): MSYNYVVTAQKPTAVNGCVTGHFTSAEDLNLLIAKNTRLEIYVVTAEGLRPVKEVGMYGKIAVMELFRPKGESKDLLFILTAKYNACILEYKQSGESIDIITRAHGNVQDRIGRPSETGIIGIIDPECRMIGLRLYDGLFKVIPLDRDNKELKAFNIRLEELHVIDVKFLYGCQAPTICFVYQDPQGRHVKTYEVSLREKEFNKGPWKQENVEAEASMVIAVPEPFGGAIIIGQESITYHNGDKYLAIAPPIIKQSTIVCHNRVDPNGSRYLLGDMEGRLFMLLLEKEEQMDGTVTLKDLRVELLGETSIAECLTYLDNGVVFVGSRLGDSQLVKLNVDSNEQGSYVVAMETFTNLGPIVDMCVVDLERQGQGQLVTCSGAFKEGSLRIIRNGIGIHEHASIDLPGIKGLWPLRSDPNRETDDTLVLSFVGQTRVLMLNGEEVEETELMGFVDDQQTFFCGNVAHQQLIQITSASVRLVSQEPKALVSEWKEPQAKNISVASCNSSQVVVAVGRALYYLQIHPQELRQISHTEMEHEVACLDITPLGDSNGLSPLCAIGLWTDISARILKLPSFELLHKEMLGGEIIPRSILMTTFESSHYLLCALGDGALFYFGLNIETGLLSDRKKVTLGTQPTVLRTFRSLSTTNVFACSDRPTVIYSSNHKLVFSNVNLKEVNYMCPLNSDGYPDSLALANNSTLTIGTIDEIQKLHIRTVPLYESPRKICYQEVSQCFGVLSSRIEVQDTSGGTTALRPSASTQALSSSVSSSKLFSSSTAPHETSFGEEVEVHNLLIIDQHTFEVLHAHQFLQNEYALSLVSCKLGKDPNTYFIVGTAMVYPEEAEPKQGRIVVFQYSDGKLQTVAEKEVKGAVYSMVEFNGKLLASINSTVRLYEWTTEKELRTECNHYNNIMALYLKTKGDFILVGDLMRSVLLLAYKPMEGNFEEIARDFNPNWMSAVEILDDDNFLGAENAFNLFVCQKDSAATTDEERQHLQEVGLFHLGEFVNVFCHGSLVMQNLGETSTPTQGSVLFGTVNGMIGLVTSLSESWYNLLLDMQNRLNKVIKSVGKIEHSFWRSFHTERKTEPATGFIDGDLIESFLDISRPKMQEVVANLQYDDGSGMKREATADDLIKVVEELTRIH

Compound	Dmax at 25 µM (100 minus Amax at 25 uM) [%]	remaining activity at 25 µM [1] [%]	DC50 [nM]	% degradation of WIZ (100-Amax) (100 minus Amax at 25 uM) [%]	WIZ Amax [1] [%]
CC(C)(C)OC(=O)N1CCCC(Cc2ccc3onc(N4CCC(=O)NC4=O)c3c2)C1 (stereo not drawn) [Example 42, tert-butyl 3-((3-(2,4-dioxotetrahydropyrimidin-1 (2H)-yl)benzo[d]isoxazol-5-yl)methyl)piperidine-1-carboxylate]	82	18	1010		
O=C1CCN(c2noc3ccc(CC4CCN(CC(F)(F)F)CC4)cc23)C(=O)N1 [Example 13, 1-(5-((1-(2,2,2-trifluoroethyl)piperidin-4-yl)methyl)benzo[d]isoxazol-3-yl)dihydropyrimidine-2,4(1H,3H)-dione]	89	11	39		
CS(=O)(=O)N1[C@@H]2CC[C@H]1CC(Cc1ccc3onc(N4CCC(=O)NC4=O)c3c1)C2 (stereo partly drawn) [Example 60, 1-(5-(((1R,5S)-8-(methylsulfonyl)-8-azabicyclo[3.2.1]octan-3-yl)methyl)benzo[d]isoxazol-3-yl)dihydropyrimidine-2,4(1H,3H)-dione]	90	10	9		
C[C@H]1CN(Cc2ccc3onc(N4CCC(=O)NC4=O)c3c2)CCN1C1COC1 [Example 82, (S)-1-(5-((3-methyl-4-(oxetan-3-yl)piperazin-1-yl)methyl)benzo[d]isoxazol-3-yl)dihydropyrimidine-2,4(1H,3H)-dione]	95	5	77		
CC(C)(C)OC(=O)N1CCC(Cc2ccc3onc(N4CCC(=O)NC4=O)c3c2)CC1 [Example 1a, tert-butyl 4-((3-(2,4-dioxotetrahydropyrimidin-1(2H)-yl)benzo[d]isoxazol-5-yl)methyl)piperidine-1-carboxylate]	85	15	160		
O=C1CCN(c2noc3ccc(CN4CCN(C5CCOCC5)CC4)cc23)C(=O)N1 [Example 81, 1-(5-((4-(tetrahydro-2H-pyran-4-yl)piperazin-1-yl)methyl)benzo[d]isoxazol-3-yl)dihydropyrimidine-2,4(1H,3H)-dione]	90	10	26		
O=C1CCN(c2noc3ccc(CC4CCCNC4)cc23)C(=O)N1 (stereo not drawn) [Example 43, 1-(5-(piperidin-3-ylmethyl)benzo[d]isoxazol-3-yl)dihydropyrimidine-2,4(1H,3H)-dione]	78	22	940		
CCS(=O)(=O)N1CCN(Cc2ccc3onc(N4CCC(=O)NC4=O)c3c2)[C@H](C)C1 [Example 72, (R)-1-(5-((4-(ethylsulfonyl)-2-methylpiperazin-1-yl)methyl)benzo[d]isoxazol-3-yl)dihydropyrimidine-2,4(1H,3H)-dione]	81	19	98		
O=C1CCN(c2noc3ccc(CC4CCN(CC5CCCCC5)C4)cc23)C(=O)N1 (stereo not drawn) [Example 49, 1-(5-((1-(cyclohexylmethyl)pyrrolidin-3-yl)methyl)benzo[d]isoxazol-3-yl)dihydropyrimidine-2,4(1H,3H)-dione]	87	13	279		
CCN1CCC(Cc2ccc3onc(N4CCC(=O)NC4=O)c3c2)CC1 [Example 8, 1-(5-((1-ethylpiperidin-4-yl)methyl)benzo[d]isoxazol-3-yl)dihydropyrimidine-2,4(1H,3H)-dione]	91	9	16		
CN1C[C@H]2CC[C@@H](C1)N2Cc1ccc2onc(N3CCC(=O)NC3=O)c2c1 [Example 103, 1-(5-(((1R,5S)-3-methyl-3,8-diazabicyclo[3.2.1]octan-8-yl)methyl)benzo[d]isoxazol-3-yl)dihydropyrimidine-2,4(1H,3H)-dione]	86	14	68		
CN1[C@@H]2CC[C@H]1CN(Cc1ccc3onc(N4CCC(=O)NC4=O)c3c1)C2 [Example 101, 1-(5-(((1R,5S)-8-methyl-3,8-diazabicyclo[3.2.1]octan-3-yl)methyl)benzo[d]isoxazol-3-yl)dihydropyrimidine-2,4(1H,3H)-dione]	78	22	13		
O=C1CCN(c2noc3ccc(CN4[C@@H]5CC[C@H]4CNC5)cc23)C(=O)N1 [Example 102, 1-(5-(((1R,5S)-3,8-diazabicyclo[3.2.1]octan-8-yl)methyl)benzo[d]isoxazol-3-yl)dihydropyrimidine-2,4(1H,3H)-dione]	80	20	462		
CS(=O)(=O)N1[C@@H]2CC[C@H]1CC(Cc1ccc3onc(N4CCC(=O)NC4=O)c3c1)C2 (stereo partly drawn) [Example 61, 1-(5-(((1R,5S)-8-(methylsulfonyl)-8-azabicyclo[3.2.1]octan-3-yl)methyl)benzo[d]isoxazol-3-yl)dihydropyrimidine-2,4(1H,3H)-dione]			26	85	15
O=C1CCN(c2noc3ccc(CC4CCN(Cc5cccnc5)CC4)cc23)C(=O)N1 [Example 4, 1-(5-((1-(pyridin-3-ylmethyl)piperidin-4-yl)methyl)benzo[d]isoxazol-3-yl)dihydropyrimidine-2,4(1H,3H)-dione]	92	8	33		
C[C@@H]1CN(C(=O)NC2CCCC2)CCN1Cc1ccc2onc(N3CCC(=O)NC3=O)c2c1 [Example 76, (R)—N-cyclopentyl-4-((3-(2,4-dioxotetrahydropyrimidin-1(2H)-yl)benzo[d]isoxazol-5-yl)methyl)-3-methylpiperazine-1-carboxamide]	78	22	115		
O=C1CCN(c2noc3ccc(CC4CCN(CC5CC5)CC4)cc23)C(=O)N1 [Example 6, 1-(5-((1-(cyclopropylmethyl)piperidin-4-yl)methyl)benzo[d]isoxazol-3-yl)dihydropyrimidine-2,4(1H,3H)-dione]	91	9	30		

Now from value to molecule, other results behind:

Dmax at 25 µM (100 minus Amax at 25 uM) [%]	remaining activity at 25 µM [1] [%]	DC50 [nM]	Compound	% degradation of WIZ (100-Amax) (100 minus Amax at 25 uM) [%]	WIZ Amax [1] [%]
83	17	6	CC[C@@H]1CN(C)CCN1Cc1ccc2onc(N3CCC(=O)NC3=O)c2c1 [Example 87, (R)-1-(5-((2-ethyl-4-methylpiperazin-1-yl)methyl)benzo[d]isoxazol-3-yl)dihydropyrimidine-2,4(1H,3H)-dione]		
86	14	109	C[C@H]1CN(Cc2ccc3onc(N4CCC(=O)NC4=O)c3c2)[C@@H](C)CN1C [Example 106, 1-(5-(((2S,5S)-2,4,5-trimethylpiperazin-1-yl)methyl)benzo[d]isoxazol-3-yl)dihydropyrimidine-2,4(1H,3H)-dione]		
85	15	61	O=C1CCN(c2noc3ccc(CN4CCN5CCOC[C@@H]5C4)cc23)C(=O)N1 [Example 111, (S)-1-(5-((hexahydropyrazino[2,1-c][1,4]oxazin-8(1H)-yl)methyl)benzo[d]isoxazol-3-yl)dihydropyrimidine-2,4(1H,3H)-dione]		
84	16	192	CN1C[C@H]2C[C@@H]1CN2Cc1ccc2onc(N3CCC(=O)NC3=O)c2c1 [Example 97]		
91	9	149	CC(c1ccc2onc(N3CCC(=O)NC3=O)c2c1)N1CCN(C)CC1 (stereo not drawn) [Example 127, 1-(5-(1-(4-methylpiperazin-1-yl)ethyl)benzo[d]isoxazol-3-yl)dihydropyrimidine-2,4(1H,3H)-dione]		
87	13	45	O=C1CCN(c2noc3ccc(CN4CCN5[C@@H](CCS5(=O)=O)C4)cc23)C(=O)N1 [Example 112, (S)-1-(5-((1,1-dioxidohexahydro-5H-isothiazolo[2,3-a]pyrazin-5-yl)methyl)benzo[d]isoxazol-3-yl)dihydropyrimidine-2,4(1H,3H)-dione]		
87	13	578	COC[C@H]1CN(Cc2ccc3onc(N4CCC(=O)NC4=O)c3c2)CCN1C [Example 117, (R)-1-(5-((3-(methoxymethyl)-4-methylpiperazin-1-yl)methyl)benzo[d]isoxazol-3-yl)dihydropyrimidine-2,4(1H,3H)-dione]		
82	18	4	CN1CCN(Cc2ccc3onc(N4CCC(=O)NC4=O)c3c2)CC1(C)C [Example 92, 1-(5-((3,3,4-trimethylpiperazin-1-yl)methyl)benzo[d]isoxazol-3-yl)dihydropyrimidine-2,4(1H,3H)-dione]		
80	20	208	CN1CCN(Cc2ccc3onc(N4CCC(=O)NC4=O)c3c2)C[C@@H]1C(F)F [Example 118, (R)-1-(5-((3-(difluoromethyl)-4-methylpiperazin-1-yl)methyl)benzo[d]isoxazol-3-yl)dihydropyrimidine-2,4(1H,3H)-dione]		
78	22	193	O=C1CCN(c2noc3ccc(CN4CCN5C(=O)COC[C@H]5C4)cc23)C(=O)N1 [Example 116, (R)-1-(5-((4-oxohexahydropyrazino[2,1-c][1,4]oxazin-8(1H)-yl)methyl)benzo[d]isoxazol-3-yl)dihydropyrimidine-2,4(1H,3H)-dione]		
